Reference: ChEMBL document CHEMBL1134304, “Discovery of novel p-arylthio cinnamides as antagonists of leukocyte function-associated antigen-1/intercellular adhesion molecule-1 interaction. 4. Structure-activity relationship of substituents on the benzene ring of the cinnamide” (J Med Chem, 2001)

Legend:
[1] = target: T1, Integrin alpha-L (Homo sapiens, UniProt P20701); experiment: Inhibition of intercellular adhesion molecule-1 (ICAM-1) binding to recombinant LFA-1, range(50-60)
T1 sequence (P20701 whole entry): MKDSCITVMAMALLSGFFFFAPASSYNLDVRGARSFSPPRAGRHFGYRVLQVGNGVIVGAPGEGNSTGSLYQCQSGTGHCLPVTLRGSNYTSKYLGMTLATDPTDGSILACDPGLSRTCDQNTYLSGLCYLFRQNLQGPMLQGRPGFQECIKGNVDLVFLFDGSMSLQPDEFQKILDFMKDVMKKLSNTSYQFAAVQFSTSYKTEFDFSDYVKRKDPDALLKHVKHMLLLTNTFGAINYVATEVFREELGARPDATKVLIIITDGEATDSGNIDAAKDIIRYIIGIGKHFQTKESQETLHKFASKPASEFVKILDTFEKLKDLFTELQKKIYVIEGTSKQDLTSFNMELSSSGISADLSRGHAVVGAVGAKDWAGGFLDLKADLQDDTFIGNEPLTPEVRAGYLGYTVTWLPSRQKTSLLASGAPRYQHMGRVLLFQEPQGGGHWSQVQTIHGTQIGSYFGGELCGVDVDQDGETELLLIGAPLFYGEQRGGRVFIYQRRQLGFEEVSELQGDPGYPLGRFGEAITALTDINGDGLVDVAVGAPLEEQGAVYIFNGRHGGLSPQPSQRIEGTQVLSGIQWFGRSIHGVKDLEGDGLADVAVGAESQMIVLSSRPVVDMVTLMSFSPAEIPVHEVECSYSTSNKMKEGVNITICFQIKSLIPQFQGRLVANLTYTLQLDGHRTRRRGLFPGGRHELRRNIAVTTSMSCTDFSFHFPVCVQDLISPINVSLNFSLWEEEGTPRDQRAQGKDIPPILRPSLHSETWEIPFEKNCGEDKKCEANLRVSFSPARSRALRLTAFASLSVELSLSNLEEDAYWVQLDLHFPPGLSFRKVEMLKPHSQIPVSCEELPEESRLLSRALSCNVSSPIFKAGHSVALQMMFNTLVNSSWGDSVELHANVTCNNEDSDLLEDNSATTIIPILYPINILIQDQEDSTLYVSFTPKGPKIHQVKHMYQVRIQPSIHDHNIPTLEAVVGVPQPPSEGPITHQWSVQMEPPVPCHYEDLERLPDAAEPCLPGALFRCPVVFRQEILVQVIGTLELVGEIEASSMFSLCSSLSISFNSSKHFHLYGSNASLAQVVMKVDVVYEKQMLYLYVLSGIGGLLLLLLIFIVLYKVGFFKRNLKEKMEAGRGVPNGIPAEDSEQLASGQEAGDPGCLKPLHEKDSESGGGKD

[2] = target: T2, Intercellular adhesion molecule (ICAM-1), Integrin alpha-L/beta-2 (Homo sapiens, UniProt P05107+P20701); experiment: Inhibition of LFA-1 mediated JY-8 cell adhesion to ICAM-1, range (30-170); type: functional, cell-based
[3] = target: T1, Integrin alpha-L
[4] = target: T1, Integrin alpha-L; experiment: Inhibition of intercellular adhesion molecule-1 (ICAM-1) binding to recombinant LFA-1
[5] = target: T2, Intercellular adhesion molecule (ICAM-1), Integrin alpha-L/beta-2; experiment: Inhibition of LFA-1 mediated JY-8 cell adhesion to ICAM-1, range(3-10); type: functional, cell-based
[6] = target: T1, Integrin alpha-L; experiment: Inhibition of intercellular adhesion molecule-1 (ICAM-1) binding to recombinant LFA-1, range(5-5)
[7] = target: T2, Intercellular adhesion molecule (ICAM-1), Integrin alpha-L/beta-2; experiment: Inhibition of LFA-1 mediated JY-8 cell adhesion to ICAM-1, range (6-10); type: functional, cell-based
[8] = target: T1, Integrin alpha-L; experiment: Inhibition of intercellular adhesion molecule-1 (ICAM-1) binding to recombinant LFA-1, range(6-9)
[9] = target: T1, Integrin alpha-L; experiment: Inhibition of intercellular adhesion molecule-1 (ICAM-1) binding to recombinant LFA-1, range (6-9)
[10] = target: T2, Intercellular adhesion molecule (ICAM-1), Integrin alpha-L/beta-2; experiment: Inhibition of LFA-1 mediated JY-8 cell adhesion to ICAM-1, range (2-9); type: functional, cell-based
[11] = target: T1, Integrin alpha-L; experiment: Inhibition of intercellular adhesion molecule-1 (ICAM-1) binding to recombinant LFA-1, range (80-110)
[12] = target: T2, Intercellular adhesion molecule (ICAM-1), Integrin alpha-L/beta-2; experiment: Inhibition of LFA-1 mediated JY-8 cell adhesion to ICAM-1, range (30-150); type: functional, cell-based
[13] = target: T1, Integrin alpha-L; experiment: Inhibition of intercellular adhesion molecule-1 (ICAM-1) binding to recombinant LFA-1, range(30-60)
[14] = target: T1, Integrin alpha-L; remark: listed apart in the source
[15] = target: T1, Integrin alpha-L; experiment: Inhibition of intercellular adhesion molecule-1 (ICAM-1) binding to recombinant LFA-1, range (260-270)
[16] = target: T2, Intercellular adhesion molecule (ICAM-1), Integrin alpha-L/beta-2
[17] = target: T1, Integrin alpha-L; remark: listed apart in the source
[18] = target: T2, Intercellular adhesion molecule (ICAM-1), Integrin alpha-L/beta-2; remark: listed apart in the source
[19] = target: T1, Integrin alpha-L; remark: listed apart in the source
[20] = target: T1, Integrin alpha-L; experiment: Inhibition of intercellular adhesion molecule-1 (ICAM-1) binding to recombinant LFA-1, range (10400-11300)
[21] = target: T1, Integrin alpha-L; experiment: Inhibition of intercellular adhesion molecule-1 (ICAM-1) binding to recombinant LFA-1, range(140-150)
[22] = target: T1, Integrin alpha-L; remark: listed apart in the source
[23] = target: T1, Integrin alpha-L; experiment: Inhibition of intercellular adhesion molecule-1 (ICAM-1) binding to recombinant LFA-1, range (4-7)
[24] = target: T2, Intercellular adhesion molecule (ICAM-1), Integrin alpha-L/beta-2; experiment: Inhibition of LFA-1 mediated JY-8 cell adhesion to ICAM-1, range (2-2); type: functional, cell-based
[25] = target: T1, Integrin alpha-L; experiment: Inhibition of intercellular adhesion molecule-1 (ICAM-1) binding to recombinant LFA-1, range (3600-5100)

T2 sequence (P05362 whole entry, one chain of several, further chain): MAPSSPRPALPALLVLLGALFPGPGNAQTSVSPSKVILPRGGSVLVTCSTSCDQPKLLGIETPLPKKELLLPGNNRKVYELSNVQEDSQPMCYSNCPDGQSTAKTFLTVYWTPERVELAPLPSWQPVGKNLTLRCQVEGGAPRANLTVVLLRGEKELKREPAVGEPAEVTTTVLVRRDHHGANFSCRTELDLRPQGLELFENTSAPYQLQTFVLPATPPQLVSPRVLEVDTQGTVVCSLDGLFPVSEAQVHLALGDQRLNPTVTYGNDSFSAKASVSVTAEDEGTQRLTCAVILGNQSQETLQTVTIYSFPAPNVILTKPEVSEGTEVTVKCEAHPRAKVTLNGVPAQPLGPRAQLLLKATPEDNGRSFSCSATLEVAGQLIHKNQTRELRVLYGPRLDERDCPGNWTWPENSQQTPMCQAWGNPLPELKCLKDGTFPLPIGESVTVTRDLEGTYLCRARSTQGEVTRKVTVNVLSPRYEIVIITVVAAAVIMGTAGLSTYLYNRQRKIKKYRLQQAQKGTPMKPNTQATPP
T2 sequence (P05107 whole entry, one chain of several): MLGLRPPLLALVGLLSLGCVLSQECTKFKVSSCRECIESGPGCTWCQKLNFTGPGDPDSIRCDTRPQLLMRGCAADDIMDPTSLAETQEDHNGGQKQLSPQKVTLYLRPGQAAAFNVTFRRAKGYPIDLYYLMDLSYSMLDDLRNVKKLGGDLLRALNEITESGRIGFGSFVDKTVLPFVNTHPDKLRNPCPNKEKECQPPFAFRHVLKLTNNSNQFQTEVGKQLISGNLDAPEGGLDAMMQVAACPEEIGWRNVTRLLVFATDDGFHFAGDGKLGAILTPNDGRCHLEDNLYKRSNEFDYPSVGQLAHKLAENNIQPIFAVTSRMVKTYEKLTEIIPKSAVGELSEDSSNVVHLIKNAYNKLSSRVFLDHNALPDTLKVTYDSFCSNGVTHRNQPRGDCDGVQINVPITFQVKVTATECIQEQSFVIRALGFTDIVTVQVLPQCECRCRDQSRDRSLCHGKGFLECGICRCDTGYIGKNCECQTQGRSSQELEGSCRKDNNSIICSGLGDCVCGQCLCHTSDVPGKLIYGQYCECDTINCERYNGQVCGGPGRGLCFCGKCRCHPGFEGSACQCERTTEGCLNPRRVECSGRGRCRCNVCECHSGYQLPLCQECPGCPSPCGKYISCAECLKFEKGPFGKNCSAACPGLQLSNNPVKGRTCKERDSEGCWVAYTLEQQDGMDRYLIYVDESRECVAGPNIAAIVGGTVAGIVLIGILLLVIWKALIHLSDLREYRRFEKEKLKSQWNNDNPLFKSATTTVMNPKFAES

CC(=O)N1CCN(C(=O)/C=C/c2ccc(Sc3ccc4c(c3)OCCO4)c(C(F)(F)F)c2)CC1
IC50 [1]: 55 nM
IC50 [2]: 60 nM

CC(C)c1ccccc1SC1=CC=C(/C=C/C(=O)N2CCC(C(=O)O)CC2)C(F)C1F (stereo not given)
IC50 [3]: 115 nM

COc1ccccc1Sc1cc(C)c(/C=C/C(=O)N2CCC(C(=O)O)CC2)cc1[N+](=O)[O-]
IC50 [4]: > 20000 nM

Cn1ccc2cc(Sc3ccc(/C=C/C(=O)N4CCC(C(=O)O)CC4)c(C(F)(F)F)c3C(F)(F)F)ccc21
IC50 [5]: 5 nM
IC50 [6]: 5 nM

CC(=O)N1CCN(C(=O)/C=C/c2ccc(Sc3ccc4c(c3)OCCO4)c(Cl)c2Cl)CC1
IC50 [7]: 8 nM
IC50 [8]: 7 nM

O=C(O)C1CCN(C(=O)/C=C/c2ccc(Sc3ccc4c(c3)OCCO4)c(Cl)c2Cl)CC1
IC50 [9]: 7 nM
IC50 [10]: 6 nM

COc1ccccc1Sc1ccc(/C=C/C(=O)N2CCOCC2)c(C)c1C
IC50 [11]: 90 nM

CC(=O)N1CCN(C(=O)/C=C/c2ccc(Sc3ccc4c(c3)OCCO4)c(Cl)c2)CC1
IC50 [12]: 80 nM
IC50 [13]: 40 nM

O=C(/C=C/c1ccc(Sc2ccc3c(c2)OCCO3)c(C(F)(F)F)c1)N1CCOCC1
IC50 [14]: 30 nM

COc1ccccc1Sc1ccc(/C=C/C(=O)N2CCC(C(=O)O)CC2)c(C(F)(F)F)c1
IC50 [15]: 265 nM

COc1ccccc1Sc1ccc(/C=C/C(=O)N2CCC(C(=O)O)CC2)c(C(F)(F)F)c1C(F)(F)F
IC50 [16]: 0.1 nM
IC50 [17]: 5 nM

O=C(O)C1CCN(C(=O)/C=C/c2ccc(Sc3ccc4c(c3)OCCO4)c(C(F)(F)F)c2C(F)(F)F)CC1
IC50 [18]: 0.5 nM
IC50 [19]: 3 nM

COc1ccccc1Sc1ccc(/C=C/C(=O)N2CCN(C(C)=O)CC2)cc1OC
IC50 [20]: 10700 nM

O=C(O)C1CCN(C(=O)/C=C/c2ccc(Sc3ccc4c(c3)OCCO4)c(Cl)c2)CC1
IC50 [21]: 145 nM

O=C(O)C1CCN(C(=O)/C=C/c2ccc(Sc3ccc4c(c3)OCCO4)c3ccccc23)CC1
IC50 [22]: 295 nM

O=C(O)C1CCN(C(=O)/C=C/c2ccc(Sc3ccc4c(c3)OCCO4)c(Cl)c2C(F)(F)F)CC1
IC50 [23]: 5 nM
IC50 [24]: 2 nM

CC(=O)N1CCN(C(=O)/C=C/c2ccc(Sc3ccc(Cl)cc3Cl)cc2)CC1
IC50 [25]: 4300 nM
